PubChem BioAssay (NCI)
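96-well plates; 48 h exposure; 5 concentrations. Endpoints by linear interpolation between flanking doses. Not reached: highest tested concentration assigned. GI50 is the concentration that inhibits growth by half. Definition used: TGI = concentration required for complete inhibition of growth.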

Columns and labels:
Assay in all cases: NCI-60 cell line screen, 48 h
[1] = system: 786-0 renal
[2] = system: A498 renal
[3] = system: A549 NSCLC
[4] = system: ACHN renal
[5] = system: BT-549 breast
[6] = system: CAKI-1 renal
[7] = system: CCRF-CEM leukemia
[8] = system: COLO 205 colon
[9] = system: DU-145 prostate
[10] = system: EKVX NSCLC
[11] = system: HCC-2998 colon
[12] = system: HCT-116 colon
[13] = system: HCT-15 colon
[14] = system: HL-60(TB) leukemia
[15] = system: HOP-62 NSCLC
[16] = system: HOP-92 NSCLC
[17] = system: HS 578T breast
[18] = system: HT29 colon
[19] = system: IGROV1 ovarian
[20] = system: K-562 leukemia
[21] = system: KM12 colon
[22] = system: LOX IMVI melanoma
[23] = system: M14 melanoma
[24] = system: MALME-3M melanoma
[25] = system: MCF7 breast
[26] = system: MDA-MB-231 breast
[27] = system: MDA-MB-435
[28] = system: MOLT-4 leukemia
[29] = system: NCI-H226 lung
[30] = system: NCI-H23 lung
[31] = system: NCI-H460 lung
[32] = system: NCI-H522 lung
[33] = system: NCI/ADR-RES ovarian
[34] = system: OVCAR-4 ovarian
[35] = system: OVCAR-5 ovarian
[36] = system: OVCAR-8 ovarian
[37] = system: PC-3 prostate
[38] = system: RPMI-8226 leukemia
[39] = system: RXF 393 renal
[40] = system: SF-268 CNS
[41] = system: SF-295 CNS
[42] = system: SF-539 CNS
[43] = system: SK-MEL-2 melanoma
[44] = system: SK-MEL-28 melanoma
[45] = system: SK-MEL-5 melanoma
[46] = system: SK-OV-3 ovarian
[47] = system: SN12C renal
[48] = system: SNB-19 CNS
[49] = system: SNB-75 CNS
[50] = system: SR leukemia
[51] = system: SW-620 colon
[52] = system: T-47D breast
[53] = system: TK-10 renal
[54] = system: U251 CNS
[55] = system: UACC-257 melanoma
[56] = system: UACC-62 melanoma
[57] = system: UO-31 renal

With `NS(=O)(=O)c1ccc(Nc2nc(N/N=C/c3ccccn3)nc(Nc3ccccc3)n2)cc1` the GI50 [1] was 1.06 µM, the TGI [1] was > 100 µM and the GI50 [2] was 1.57 µM. It also gave a TGI [2] of 3.18 µM, a GI50 [3] of 2.29 µM and a TGI [3] of 5.36 µM. For the same molecule, the GI50 [4] was 1.96 µM, the TGI [4] was 5.47 µM and the GI50 [5] was 0.898 µM. For the same molecule, the TGI [5] was 6.92 µM, the GI50 [6] was 0.701 µM and the TGI [6] was 4.89 µM. The GI50 [7] was 0.395 µM, the TGI [7] was > 100 µM and the GI50 [8] was 0.523 µM. It also gave a TGI [8] of 1.95 µM, a GI50 [9] of 0.855 µM and a TGI [9] of 4.9 µM. The GI50 [10] was 1.02 µM, the TGI [10] was 5.3 µM and the GI50 [11] was 0.703 µM. The TGI [11] was 3.48 µM, the GI50 [12] was 0.395 µM and the TGI [12] was > 100 µM. For the same molecule, the GI50 [13] was 1.74 µM, the TGI [13] was > 100 µM and the GI50 [14] was 0.709 µM. The TGI [14] was > 28.9 µM, the GI50 [15] was 0.511 µM and the TGI [15] was 4.65 µM. For the same molecule, the GI50 [16] was 0.853 µM, the TGI [16] was 4.82 µM and the GI50 [17] was 1.67 µM. It also gave a TGI [17] of 5.97 µM, a GI50 [18] of 1.79 µM and a TGI [18] of 5.93 µM. It also gave a GI50 [19] of 1.02 µM, a TGI [19] of 5.11 µM and a GI50 [20] of 0.433 µM. For the same molecule, the TGI [20] was > 100 µM, the GI50 [21] was 2.19 µM and the TGI [21] was 5.14 µM. The GI50 [22] was 0.657 µM, the TGI [22] was 3.48 µM and the GI50 [23] was 1.09 µM. It also gave a TGI [23] of 2.48 µM, a GI50 [24] of 1 µM and a TGI [24] of 2.51 µM. The GI50 [25] was 1.3 µM, the TGI [25] was 3.24 µM and the GI50 [26] was 0.62 µM. The TGI [26] was 7.06 µM, the GI50 [27] was 0.917 µM and the TGI [27] was 2.39 µM. The GI50 [28] was 0.495 µM, the TGI [28] was > 39.7 µM and the GI50 [29] was 1.07 µM. It also gave a TGI [29] of 5.97 µM, a GI50 [30] of 1.51 µM and a TGI [30] of 4.43 µM. It also gave a GI50 [31] of 2.43 µM, a TGI [31] of 6.63 µM and a GI50 [32] of 0.431 µM. The TGI [32] was 3.42 µM, the GI50 [33] was 3.08 µM and the TGI [33] was > 100 µM. It also gave a GI50 [34] of 0.46 µM, a TGI [34] of 2.59 µM and a GI50 [35] of 1.72 µM. For the same molecule, the TGI [35] was 6.61 µM, the GI50 [36] was 0.498 µM and the TGI [36] was > 100 µM. The GI50 [37] was 0.665 µM, the TGI [37] was > 100 µM and the GI50 [38] was 2.4 µM. For the same molecule, the TGI [38] was 6.01 µM, the GI50 [39] was 1.24 µM and the TGI [39] was 2.91 µM. It also gave a GI50 [40] of 0.492 µM, a TGI [40] of 4.23 µM and a GI50 [41] of 1.72 µM. It also gave a TGI [41] of 7.1 µM, a GI50 [42] of 0.683 µM and a TGI [42] of 2.53 µM. The GI50 [43] was 1.28 µM, the TGI [43] was 2.67 µM and the GI50 [44] was 0.809 µM. It also gave a TGI [44] of 2.3 µM, a GI50 [45] of 1.02 µM and a TGI [45] of 2.34 µM. It also gave a GI50 [46] of 0.773 µM, a TGI [46] of 3.92 µM and a GI50 [47] of 1.29 µM. The TGI [47] was 6.13 µM, the GI50 [48] was 0.947 µM and the TGI [48] was > 27.4 µM. The GI50 [49] was 1.21 µM, the TGI [49] was 2.63 µM and the GI50 [50] was 0.342 µM. The TGI [50] was > 100 µM, the GI50 [51] was 0.786 µM and the TGI [51] was > 100 µM. The GI50 [52] was 0.346 µM, the TGI [52] was 2.73 µM and the GI50 [53] was 1.1 µM. For the same molecule, the TGI [53] was 5.26 µM, the GI50 [54] was 0.514 µM and the TGI [54] was > 100 µM. For the same molecule, the GI50 [55] was 2.14 µM, the TGI [55] was 5.39 µM and the GI50 [56] was 0.788 µM. For the same molecule, the TGI [56] was 2.31 µM, the GI50 [57] was 1.68 µM and the TGI [57] was 4.91 µM.
